We go through one compound from paper PMC6222487 (Molecules : A Journal of Synthetic Chemistry and Natural …, 2018).

Read-outs that look alike come from different tables or passages of the source.

One series concerns the target T1, AChE (from electric eel) (Electrophorus electricus, UniProt O42275).
T1 construct: purchased Merck & Co
Kind of series: biochemical. Type of series: biochemical. As to the method:
(§1) Photometric 96-well microplates made from polystyrene (Thermo Scientific, Waltham, […]. USA) were used for measurement purposes.
(§2) AChE and BuChE inhibitory activities were measured by the spectrophotometric method of Ellman, with slight modification. Briefly, all in vitro assays were performed in 0.1 M NaH2PO4/Na2HPO4 buffer, pH 7.4, using a THERMO Enzyme-labeled Instrument. The enzyme solutions were prepared to obtain 2.0 units/mL in 2.0 mL aliquots. The assay medium (1 mL) consisted of phosphate buffer (pH 7.4), 10 μL of the enzyme, 30 μL of 0.01 M DTNB, and 30 μL of substrate (ATC or BTC) at a concentration of 0.01 M. The test and reference compounds were first dissolved in DMSO (5‰) and fetal bovine serum (1‰), and then diluted in 0.1 M NaH2PO4/Na2HPO4 buffer (pH 7.4) to provide a final concentration range. The inhibitors were added to the assay solution containing enzyme, buffer, and DTNB with pre-incubation for 20 min at 37 °C, prior to the addition of the substrate. The activity was determined by measuring the increase in absorbance at 410 nm at 1 min intervals at 37 °C. The data were calculated according to the method described by Ellman et al. Each concentration was assayed in triplicate. Blanks containing all of the components except AChE were included in the analyses.

For series [1], the target named is T2, BuChE (from equine serum) (Equus caballus, UniProt P81908).
T2 construct: purchased Merck & Co; host or cells: equine serum
Kind of series: biochemical. The conditions noted are these: mean ± SEM. How it is done: as §1, §2

The next series addresses T3, Aβ (1-42) (Homo sapiens, UniProt P05067).
T3 construct: Aβ (1-42) peptide (Sigma-Aldrich); purchased Sigma-Aldrich
Kind of series: biochemical. The conditions noted are these: self-induced aggregation, thioflavin-T; Aβ 20 μM, 37 °C, 24 h; NA = No potent inhibitory activity. How it is done: A Thioflavin T-based fluorometric assay was performed in order to investigate the self-induced Aβ (1-42) aggregation. Briefly, compounds to be tested were firstly dissolved in DMSO to obtain a 10 mM solution and then diluted in phosphate buffer (pH 7.4) to provide a final concentration range. […] After incubation, thioflavin-T (5 μM in 50 mM glycine-NaOH buffer, pH 8.0) was added into the above 96-well microplate and the samples were diluted to a final volume of 150 μL. […] Each inhibitor was run in triplicate.

Another series deals with HepG2 cells. Type of series: cell-based. The conditions noted are these: for Cell viability: 24 h, CCK-8. How it is done:
One of the best documented side-effects of the drug discovery and development of AD is cytotoxicity. To probe whether such a type of target compounds involves cytotoxic effects, we respectively treated HepG2 cells and SH-SY5Y cells with several concentrations of the corresponding compound. Cell viability was determined by a CCK-8 assay. […].
HepG2 cells (human hepatocellular liver carcinoma cell line from American Type Culture Collection, ATCC) were cultured in Eagle’s minimum essential medium (EMEM) supplemented with 10% heat-inactivated fetal bovine serum (FBS), and 100 U/mL of penicillin/streptomycin (Gino Biomedical Technology Co. LTD., Hangzhou, China). Cultures were seeded into flasks containing supplemented medium and maintained at 37 °C in a humidified atmosphere of 5% CO2. For assays, cells (1.0 × 10^5 cells/well) were seeded in a 96-well plate in complete medium, the medium was removed after 24 h, and cells were exposed to the increasing concentrations of compounds 8q or 8r (0, 25, 50, 125, 200, 300, 400, and 500 μM) in DMEM with no serum for a further 24 h. Cell survival was measured through a CCK-8 assay. All compounds were dissolved in pure DMSO.

The test system of the next series is SH-SY5Y cells. Type of series: cell-based. The conditions noted are these: for Cell viability: SH-SY5Y, 24 h, CCK-8. As to the method:
To probe whether such a type of target compounds involves cytotoxic effects, we respectively treated HepG2 cells and SH-SY5Y cells with several concentrations of the corresponding compound. Cell viability was determined by a CCK-8 assay.
SH-SY5Y cells (human neuroblastoma cell line from American Type Culture Collection, ATCC, Manassas, VA, USA) were seeded into 96-well plates at a density of 4 × 10^4 cells/mL in Dulbecco’s modified Eagle’s medium (DMEM) supplemented with 10% FBS and 100 U/mL of penicillin/streptomycin (Gino Biomedical Technology Co. LTD., Hangzhou, China), and incubated in a humidified atmosphere containing 5% CO2 at 37 °C. […] After this incubation, 10 μL/well of CCK-8 (5 mg/mL) was added and incubated at 37 °C for 4 h. The optical density (OD) of each well was measured using an Epoch Microplate Spectrophotometer (BioTek Instruments, Inc., Winooski, VT, USA) with a test wavelength of 450, 630 nm.

T1 sequence (O42275 24-633): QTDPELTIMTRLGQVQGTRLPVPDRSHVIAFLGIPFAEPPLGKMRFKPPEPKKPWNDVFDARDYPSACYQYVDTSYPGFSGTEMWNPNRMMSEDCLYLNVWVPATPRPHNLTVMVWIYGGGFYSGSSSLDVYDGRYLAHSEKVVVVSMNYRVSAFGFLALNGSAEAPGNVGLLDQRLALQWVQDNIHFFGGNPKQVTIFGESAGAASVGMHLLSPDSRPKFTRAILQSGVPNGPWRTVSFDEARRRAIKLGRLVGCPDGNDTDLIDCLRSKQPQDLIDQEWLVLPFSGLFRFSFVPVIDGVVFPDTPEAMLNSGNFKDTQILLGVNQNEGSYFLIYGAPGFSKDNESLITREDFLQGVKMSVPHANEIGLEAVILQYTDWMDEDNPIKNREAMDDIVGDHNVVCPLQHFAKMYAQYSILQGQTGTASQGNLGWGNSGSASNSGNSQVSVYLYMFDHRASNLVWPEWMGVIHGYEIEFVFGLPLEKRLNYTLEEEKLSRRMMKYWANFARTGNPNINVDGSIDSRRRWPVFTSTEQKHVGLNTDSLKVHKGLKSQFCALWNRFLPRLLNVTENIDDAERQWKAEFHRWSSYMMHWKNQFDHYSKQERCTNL
T2 sequence (P81908 whole entry): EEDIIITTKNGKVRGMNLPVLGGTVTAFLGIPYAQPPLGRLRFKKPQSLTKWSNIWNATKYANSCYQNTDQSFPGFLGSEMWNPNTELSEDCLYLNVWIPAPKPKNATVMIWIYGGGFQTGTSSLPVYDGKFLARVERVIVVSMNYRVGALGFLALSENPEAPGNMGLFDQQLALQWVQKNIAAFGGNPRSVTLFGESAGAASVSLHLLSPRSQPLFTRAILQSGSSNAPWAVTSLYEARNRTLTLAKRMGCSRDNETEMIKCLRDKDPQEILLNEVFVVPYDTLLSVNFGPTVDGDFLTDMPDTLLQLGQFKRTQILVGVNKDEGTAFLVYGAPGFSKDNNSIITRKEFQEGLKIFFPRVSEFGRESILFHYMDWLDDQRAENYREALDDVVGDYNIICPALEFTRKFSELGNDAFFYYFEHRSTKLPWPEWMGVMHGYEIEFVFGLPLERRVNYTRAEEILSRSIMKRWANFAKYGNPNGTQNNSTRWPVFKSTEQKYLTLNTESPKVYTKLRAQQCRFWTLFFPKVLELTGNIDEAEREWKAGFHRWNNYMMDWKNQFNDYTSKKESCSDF
T3 sequence (P05067 672-713): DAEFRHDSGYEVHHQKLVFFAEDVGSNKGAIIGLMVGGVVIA

In general, IC50 refers to the concentration that inhibits the measured activity by half. The low end stands for higher potency, the high end for lower potency. On to `Cc1nc(C)c(C(=O)OCCCOC(=O)c2ccccn2)nc1C` [Compound 8r, 3-[(Pyridine-2-carbonyl)oxy]propyl 3,5,6-trimethylpyrazine-2-carboxylate], for which the IC50 at AChE (from electric eel) (mean ± SEM, NA = No potent inhibitory activity) is 0.25 ± 0.39 nM; in series [1], 3.3 ± 0.06 mM; at Aβ (1-42), 49.14 ± 0.025 µM. For the same compound, on AChE (from electric eel) (stronger than tacrine), the “AChE inhibition potency relative to tacrine” value is reported as 293 times. The Cell viability in the series with HepG2 cells (HepG2, 25 µM) is listed as 102.83 ± 0.57 ^ns percentage of control; in the series on HepG2 cells (HepG2, 50 µM), 88.05 ± 1.12 ^ns percentage of control; in the series on HepG2 cells (HepG2, 125 µM) it was 81.72 ± 0.87 percentage of control; in the series with HepG2 cells (HepG2, 200 µM), 71.10 ± 1.06 percentage of control; in the series with HepG2 cells (HepG2, 300 µM) it was 71.10 ± 0.80 percentage of control; with HepG2 cells (HepG2, 400 µM) it was 68.85 ± 1.11 percentage of control. Also, the Cell viability with HepG2 cells (HepG2, 500 µM) is recorded as 68.31 ± 0.53 percentage of control; in the series with SH-SY5Y cells (25 µM), 94.51 ± 0.45 ^ns percentage of control; with SH-SY5Y cells (50 µM) it was 91.46 ± 0.29 ^ns percentage of control; in the series with SH-SY5Y cells (125 µM), 83.23 ± 0.78 percentage of control; in the series with SH-SY5Y cells (200 µM), 83.26 ± 2.74 percentage of control; with SH-SY5Y cells (300 µM), 68.43 ± 0.48 percentage of control. Besides, the Cell viability is reported as 62.68 ± 0.56 percentage of control with SH-SY5Y cells (400 µM) and 66.38 ± 1.57 percentage of control in the series on SH-SY5Y cells (500 µM). Moreover, the “Cytotoxicity (in words)” value is reported as “no obvious cytotoxicity” in the series on HepG2 cells (HepG2 cells, up to 500 μM) and “no obvious cytotoxicity” with SH-SY5Y cells (SH-SY5Y cells, up to 500 μM).
